Test results: patent US11236046B2, “Substituted heterocyclic sulfonamide compounds useful as TRPA1 modulators” (Genentech, Inc., priority 2013, dated 2022)

Molecular target: human TRPA1 (Homo sapiens (Human), UniProt O75762)
Test: FLIPR Tetra calcium influx assay, block of cinnamaldehyde-induced calcium influx in CHO cells expressing TRPA1 (human)
Type: cell-based
Details: 20 min compound incubation, 75 uM cinnamaldehyde (~EC80), Hill coefficient fixed to 1.5, read-out: hTRPA1 AUC IC50
Method in brief: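 CHO cells loaded with calcium dye, preincubated with compounds 20 min at room temperature in HBSS/20 mM HEPES pH 7.4 with 0.02% BSA. Channels activated by ~EC80 cinnamaldehyde (75 uM human, 45 uM rat); block of calcium influx read on FLIPR Tetra, IC50 fitted with fixed Hill coefficient.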

Sequence of human TRPA1 (O75762 whole entry): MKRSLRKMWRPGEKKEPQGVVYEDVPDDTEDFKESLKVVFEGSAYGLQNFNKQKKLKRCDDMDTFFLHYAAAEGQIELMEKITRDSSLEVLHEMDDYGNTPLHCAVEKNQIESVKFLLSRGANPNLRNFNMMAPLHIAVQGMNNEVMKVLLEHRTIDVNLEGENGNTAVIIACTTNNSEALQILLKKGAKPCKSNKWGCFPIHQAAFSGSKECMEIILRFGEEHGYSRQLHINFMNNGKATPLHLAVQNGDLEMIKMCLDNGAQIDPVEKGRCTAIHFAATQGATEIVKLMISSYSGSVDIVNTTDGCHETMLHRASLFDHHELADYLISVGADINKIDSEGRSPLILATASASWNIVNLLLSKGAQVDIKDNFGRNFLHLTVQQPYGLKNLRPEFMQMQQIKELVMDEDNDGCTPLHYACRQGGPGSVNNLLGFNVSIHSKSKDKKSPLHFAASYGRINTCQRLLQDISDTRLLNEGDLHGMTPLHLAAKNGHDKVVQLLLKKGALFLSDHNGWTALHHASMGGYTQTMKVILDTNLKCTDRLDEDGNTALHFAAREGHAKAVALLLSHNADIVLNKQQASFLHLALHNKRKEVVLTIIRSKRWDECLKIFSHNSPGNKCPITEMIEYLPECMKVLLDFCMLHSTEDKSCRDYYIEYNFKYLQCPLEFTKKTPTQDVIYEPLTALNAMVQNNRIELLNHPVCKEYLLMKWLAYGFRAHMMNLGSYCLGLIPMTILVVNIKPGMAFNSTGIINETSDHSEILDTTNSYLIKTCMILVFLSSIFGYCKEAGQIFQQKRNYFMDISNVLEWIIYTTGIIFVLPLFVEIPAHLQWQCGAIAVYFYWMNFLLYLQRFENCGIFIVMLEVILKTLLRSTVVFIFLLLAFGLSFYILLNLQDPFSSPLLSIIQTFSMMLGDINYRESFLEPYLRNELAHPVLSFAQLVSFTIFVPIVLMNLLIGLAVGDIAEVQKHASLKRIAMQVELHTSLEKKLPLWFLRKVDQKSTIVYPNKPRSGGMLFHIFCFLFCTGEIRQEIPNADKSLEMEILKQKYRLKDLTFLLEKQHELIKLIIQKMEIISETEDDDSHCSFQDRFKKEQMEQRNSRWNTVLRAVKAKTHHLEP

Row | IC50 [nM] | Structure (SMILES)
1 | 89 | COCCOc1cc(-c2ccc(C(F)(F)F)nc2)cc(CNC(=O)[C@@H]2C[C@@H](F)CN2S(=O)(=O)c2ccc(F)cc2)n1 [Example 170, (2S,4R)-4-fluoro-1-(4-fluorophenylsulfonyl)-N-((6′-(2-methoxyethoxy)-6-(trifluoromethyl)-3,4′-bipyridin-2′-yl)methyl)pyrrolidine-2-carboxamide]
2 | 20 | O=C(NCc1cc(F)cc(-c2ccc(C(F)(F)F)nn2)c1)[C@@H]1C[C@@H](F)CN1S(=O)(=O)c1ccc(F)cc1 [Example 89, (2S,4R)-4-fluoro-1-(4-fluorophenyl)sulfonyl-N-[[3-fluoro-5-[6-(trifluoromethyl)pyridazin-3-yl]phenyl]methyl]pyrrolidine-2-carboxamide]
3 | 164 | COc1cnc(CNC(=O)[C@]2(C)C[C@@H](F)CN2S(=O)(=O)c2ccc(F)cc2)cc1-c1ccc(C(F)(F)F)nc1 [Example 109, (2S,4R)-4-fluoro-1-(4-fluorophenyl)sulfonyl-N-[[5-methoxy-4-[6-(trifluoromethyl)-3-pyridyl]-2-pyridyl]methyl]-2-methyl-pyrrolidine-2-carboxamide]
4 | 256 | COc1cnc(CNC(=O)[C@@H]2C[C@@H](F)CN2S(=O)(=O)c2ccc(F)cc2)cc1-c1ccc(C(F)(F)F)nc1 [Example 108, (2S,4R)-4-fluoro-1-[(4-fluorobenzene)sulfonyl]-N-([5-methoxy-4-[6-(trifluoromethyl)pyridin-3-yl]pyridin-2-yl]methyl)pyrrolidine-2-carboxamide]
5 | 71 | O=C(NCc1cc(-c2cnc(C(F)(F)F)nc2)nc(-c2cnc(C(F)(F)F)nc2)c1)[C@@H]1C[C@@H](F)CN1S(=O)(=O)c1ccc(F)cc1 [Example 61, (2S,4R)—N-[[2,6-bis[2-(trifluoromethyl)pyrimidin-5-yl]-4-pyridyl]methyl]-4-fluoro-1-(4-fluorophenyl)sulfonyl-pyrrolidine-2-carboxamide]
6 | 55 | O=C(NCc1cc(Cl)nc(-c2ccc(C(F)F)nc2)c1)[C@@H]1C[C@@H](F)CN1S(=O)(=O)c1ccc(F)cc1 [Example 60, (2S,4R)—N-[[2-chloro-6-[6-(difluoromethyl)-3-pyridyl]-4-pyridyl]methyl]-4-fluoro-1-(4-fluorophenyl)sulfonyl-pyrrolidine-2-carboxamide]
7 | 795 | O=C(NCc1cncc(-c2cnc(C(F)(F)F)nc2)c1)[C@@H]1C[C@@H](F)CN1S(=O)(=O)c1ccc(F)cc1 [Example 195, (2S,4R)-4-fluoro-1-(4-fluorophenyl)sulfonyl-N-[[5-[2-(trifluoromethyl)pyrimidin-5-yl]-3-pyridyl]methyl]pyrrolidine-2-carboxamide]
8 | 4 | C[C@H]1CC[C@@H](C(=O)NCc2ccnc(-c3cnc(C(F)(F)F)nc3)c2)N1S(=O)(=O)c1ccc(F)cc1 [Example 186, (2S,5S)-1-(4-fluorophenylsulfonyl)-5-methyl-N-((2-(2-(trifluoromethyl)pyrimidin-5-yl)pyridin-4-yl)methyl)pyrrolidine-2-carboxamide]
9 | 280 | C[C@@H]1[C@@H](C(=O)NCc2cc(-c3ccc(C(F)(F)F)nc3)ncn2)N(S(=O)(=O)c2ccc(F)cc2)C[C@@H]1F (single isomer, unassigned) [Example 106]
10 | 43 | O=C(NCc1cc(-c2ccc(C(F)(F)F)nn2)ccc1F)[C@@H]1C[C@@H](F)CN1S(=O)(=O)c1ccc(F)cc1 [Example 163, (2S,4R)-4-fluoro-N-(2-fluoro-5-(6-(trifluoromethyl)pyridazin-3-yl)benzyl)-1-((4-fluorophenyl)sulfonyl)pyrrolidine-2-carboxamide]
11 | 49 | O=C(NCc1cc(-c2ccc(SC(F)(F)F)cc2)ncn1)[C@@H]1C[C@@H](F)CN1S(=O)(=O)c1ccc(F)cc1 [Example 147, (2S,4R)-4-fluoro-1-(4-fluorophenylsulfonyl)-N-((6-(4-(trifluoromethylthio)phenyl)pyrimidin-4-yl)methyl)pyrrolidine-2-carboxamide]
12 | 119 | O=C(NCc1cc(F)cc(-n2cc(C(F)(F)F)cn2)c1)[C@@H]1C[C@@H](F)CN1S(=O)(=O)c1ccc(F)cc1 [Example 86, (2S,4R)-4-fluoro-1-(4-fluorophenyl)sulfonyl-N-[[3-fluoro-5-[4-(trifluoromethyl)pyrazol-1-yl]phenyl]methyl]pyrrolidine-2-carboxamide]
13 | 109 | O=C(NCc1cc(-c2ccc(C(F)(F)F)nc2)ncn1)[C@@H]1C[C@@H](F)CN1S(=O)(=O)c1ccc(F)c(F)c1 [Example 156, (2S,4R)-1-(3,4-difluorophenylsulfonyl)-4-fluoro-N-((6-(6-(trifluoromethyl)pyridin-3-yl)pyrimidin-4-yl)methyl)pyrrolidine-2-carboxamide]
14 | 47 | COc1cc(CNC(=O)[C@@H]2C[C@@H](F)CN2S(=O)(=O)c2ccc(F)cc2)cc(-c2ccc(C(F)(F)F)nc2)c1 [Example 116, (2S,4R)-4-fluoro-1-(4-fluorophenyl)sulfonyl-N-[[3-methoxy-5-[6-(trifluoromethyl)-3-pyridyl]phenyl]methyl]pyrrolidine-2-carboxamide]
15 | 54.6 | O=C(NCc1cc(-c2ccc(C(F)(F)F)nc2)nc(-c2ccc(C(F)(F)F)nc2)c1)[C@@H]1C[C@@H](F)CN1S(=O)(=O)c1ccc(F)cc1 [Example 83, (2S,4R)—N-[[2,6-bis[6-(trifluoromethyl)-3-pyridyl]-4-pyridyl]methyl]-4-fluoro-1-(4-fluorophenyl)sulfonyl-pyrrolidine-2-carboxamide]
16 | 8 | COc1cc(CNC(=O)[C@@H]2C[C@@H](F)CN2S(=O)(=O)c2ccc(F)cc2)cc(-c2cnc(C(F)(F)F)nc2)n1 [Example 188, (2S,4R)-4-fluoro-1-(4-fluorophenyl)sulfonyl-N-[[2-methoxy-6-[2-(trifluoromethyl)pyrimidin-5-yl]-4-pyridyl]methyl]pyrrolidine-2-carboxamide]
17 | 38 | O=C(NCc1ccnc(-c2cnc(C(F)(F)F)nc2)c1)[C@@H]1[C@H]2C[C@H]2CN1S(=O)(=O)c1ccc(F)cc1 [Example 172, (1R,4S,5S)-3-(4-fluorophenyl)sulfonyl-N-[[2-[2-(trifluoromethyl)pyrimidin-5-yl]-4-pyridyl]methyl]-3-azabicyclo[3.1.0]hexane-4-carboxamide]
18 | 318 | O=C(NCc1cc(-c2ccc(C(F)F)cc2)ncn1)[C@@H]1C[C@@H](F)CN1S(=O)(=O)c1ccc(F)cc1 [Example 63, (2S,4R)—N-[[6-[4-(difluoromethyl)phenyl]pyrimidin-4-yl]methyl]-4-fluoro-1-(4-fluorophenyl)sulfonyl-pyrrolidine-2-carboxamide]
19 | 41 | O=C(NCc1cc(-c2ccc(C(F)F)cc2)c(F)cn1)[C@@H]1C[C@@H](F)CN1S(=O)(=O)c1ccc(F)cc1 [Example 88, (2S,4R)—N-[[4-[4-(difluoromethyl)phenyl]-5-fluoro-2-pyridyl]methyl]-4-fluoro-1-(4-fluorophenyl)sulfonyl-pyrrolidine-2-carboxamide]
20 | 15 | O=C(NCc1cc(-c2ccc(C(F)(F)F)cc2)ncn1)[C@@H]1C[C@@H](F)CN1S(=O)(=O)c1ccc(F)cc1 [Example 143, (2S,4R)-4-fluoro-1-(4-fluorophenylsulfonyl)-N-((6-(4-(trifluoromethyl)phenyl)pyrimidin-4-yl)methyl)pyrrolidine-2-carboxamide]
